43 molecules from PubChem BioAssay (NCI) can be followed below.

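Five compound concentrations were applied to cells in 96-well plates for 48 hours; endpoints were derived by simple linear interpolation of the resulting dose-response curve. GI50 marks 50% less growth. At the TGI there is no net growth.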 Where a SMILES comes first, the peptide text is derived from it. [ ]: non-standard residue; d: D form. 2Nal = N[CH](Cc1ccc2ccccc2c1)C(=O)O

What all share (experiment): NCI tumour cell line growth inhibition, 48 h
Assay [1] has as its system RXF-631 renal.
The test system of assay [2] is KM20L2 colon.
For assay [3], the system named is DMS 114 small cell lung.
Assay [4] relates to SNB-78 CNS.
Assay [5] concerns XF 498 CNS.
Assay [6] relates to MDA-N.
The test system of assay [7] is DMS 273 small cell lung.
Assay [8] has as its system P388/ADR leukemia.
Assay [9] has as its system P388 leukemia.
Assay [10] concerns SN12K1 renal.

As to `CC1=CCC2(C#N)CCC1C2=O` (stereo unspecified), the TGI in assay [1], in assay [2], in assay [3], in [4] and in [5] was above 100 µM each time.
Turning to `Cc1oc2c(c1C(=O)c1ccccc1)C(=O)c1ccccc1C2=O`, the TGI in assay [6] was 3.9 µM; in assay [1], above 100 µM; in [2] it was 31.9 µM; in [3], 8.03 µM; in assay [4], above 100 µM; in assay [7], 26.7 µM. Further, the TGI in assay [5] was found to be 5.18 µM.
With `CC(C)OCN1COCN=C1NC#N`, the TGI in assay [1], in [2], in assay [3] and in [7] was above 100 µM throughout.
Regarding `COc1ccc(C(=O)C(C(=O)C(=O)Nc2nc3ccc(OC)cc3s2)c2ccc(OC)cc2)cc1` (stereo unspecified), the TGI in [1], in assay [2], in [3], in [4], in [7] and in assay [5] was above 100 µM throughout.
`N#Cc1c(NC(=O)CCC(=O)O)ccc2ccccc12` showed a TGI in assay [6] above 100 µM.
Take `Cc1ccccc1NC(=O)C(=O)Cc1nc2ccccc2s1`: the TGI in assay [1], in assay [3], in assay [4], in [7] and in [5] was above 100 µM in each case.
Consider `Nc1nc(N)c(-c2ccccc2)c(C(=O)Nc2ccc(Cl)c(Cl)c2)n1`, for which the TGI in [1], in assay [2], in assay [3], in [4] and in [7] was above 100 µM throughout.
As to `O=C(O)/C(O)=C1/C=C(c2ccccc2)c2ccccc21`, the TGI in [1] was 86.3 µM; in [2], 97.2 µM; in assay [3], 37.6 µM; in assay [4], above 100 µM; in assay [7] it was 33.1 µM.
Regarding `C=C(CO)CC(O)c1ccccc1` (stereo unspecified), the TGI in assay [1], in [2], in assay [3], in assay [4], in assay [7] and in [5] was above 100 µM throughout.
Turning to `CC1CC2C3CC(F)C4=CC(=O)C=CC4(C)C3(F)C(O)CC2(C)C1(O)C(=O)CO` (stereo unspecified), the TGI in [1], in assay [2], in assay [3], in assay [4], in assay [7] and in [5] was above 100 µM throughout.
With `COc1cc(C2C(C(=O)O)=C(C)Oc3cc4c(cc32)OCO4)cc(OC)c1OC` (stereo unspecified), the TGI in assay [1] is above 100 µM; in [2], above 100 µM; in [3], 50.6 µM; in [4], above 100 µM; in assay [7], above 100 µM; in [5], 95.9 µM.
For the molecule `CSc1s[s+]c(SC)c1[O-]`, the TGI in assay [1] was 41.8 µM; in assay [2], above 100 µM; in [3], 34.6 µM; in assay [4], above 100 µM; in assay [7], above 100 µM; in assay [5] it was above 100 µM.
In the case of `Cc1cccc(NC(=O)CC2C(=O)Nc3ccccc3S2(=O)=O)c1C` (stereo unspecified), the TGI is above 100 µM in assay [2], 51.6 µM in assay [3], 77.3 µM in assay [4] and above 100 µM in assay [7].
Consider `COCCN1C2=CCCCC2=Nc2c(N)nc(N)nc21`, for which the TGI in assay [1], in assay [2], in [3], in assay [4], in assay [7] and in assay [5] was above 100 µM in each case.
`COC(=O)C1CCc2c(OC)ccc(OC)c2C1=O` (stereo unspecified): the TGI in assay [2], in assay [3], in assay [4] and in assay [7] was above 100 µM in each case.
As to `COc1ccc(/C=N/NC(=O)O)cc1`, the TGI in [6] is above 100 µM.
For the molecule `CNC(=O)OCc1nc(S(C)=O)n(C)c1COC(=O)NC` (stereo unspecified), the TGI in [8] was above 100 µM; in [9], above 100 µM; in assay [1], above 100 µM; in [2] it was above 100 µM; in assay [3], above 56.2 µM; in assay [4], above 92.1 µM. The TGI in assay [7], in assay [10] and in assay [5] was above 100 µM each time.
With `CCCCCCCCCCCCCCCCCC(=O)NCCCNCCCNC(=O)CCCCCCCCCCCCCCCCC`, the TGI in [1], in [2], in assay [3] and in assay [7] was above 100 µM each time.
Take `CN/N=C(\C)CC(=O)Nc1cccc(Cl)c1C`: the TGI in assay [1], in assay [2], in assay [3], in assay [4], in assay [7] and in assay [5] was above 100 µM throughout.
Take `NC1=C(c2nc(-c3cc4ccccc4oc3=O)cs2)C(c2ccco2)c2c(c3ccccc3oc2=O)O1` (stereo unspecified): in assay [6], the GI50 is above 150 µg/mL and the TGI is above 150 µg/mL.
For `COC(=O)C(C(=O)C(=O)Nc1ccccc1OC)c1csc(-n2nc(-c3ccccc3)cc2-c2ccccc2)n1` (stereo unspecified), the TGI in assay [1], in assay [2], in [3], in assay [4], in assay [7] and in assay [5] was above 100 µM throughout.
For the molecule `CCC(=S)N(C)O`, the TGI in assay [6] was above 100 µM; in [2] it was above 100 µM; in assay [3], 5.82 µM; in assay [4], above 100 µM; in assay [5], 29.8 µM.
Turning to `Cc1ccc(C(=O)/C=C/c2ccccc2Cl)cc1`, the TGI came to 30.9 µM in [2], 35.5 µM in assay [3], 46.8 µM in assay [4] and 29.4 µM in assay [7].
With `N/C(=N\C(=S)N1CCCCC1)N1CCCCC1`, the TGI in assay [2], in [3], in assay [4], in assay [7] and in assay [5] was above 100 µM in each case.
As for `O=C(Nc1cc(C(F)(F)F)ccc1Cl)C(=O)C(C(=O)c1ccc2ccccc2c1)C1OC(=O)c2ccccc21` (stereo unspecified), the TGI in assay [2] amounted to 39.1 µM; in assay [3], 52.9 µM.
As for `O=C(O)[C@@H]1C[C@@H](O)CN1`, the TGI in assay [6] is above 100 µM.
As for `CC1CC(=O)C(C(O)CC2CC(=O)N(c3ccccc3)C(=O)C2)C(C)C1` (stereo unspecified), the TGI in assay [2], in assay [3], in assay [4] and in assay [7] was above 100 µM throughout.
In assay [6], `C=CC1=C(C)C2=NC1=CC1=NC(=C(CC)/C1=C/O)C=C1C=C3C(=O)C(C(=O)OC)C(=C4NC(=C2)C(C)C4CCC(=O)OC/C=C(\C)CCCC(C)CCCC(C)CCCC(C)C)C3=N1` (stereo unspecified) (tested in a mixture with another compound) displayed a TGI above 100 µM.
On to `O=C1CCC(=O)c2cc(Br)ccc2N1`, for which the TGI in assay [1], in [2], in [3], in assay [4], in assay [7] and in [5] was above 100 µM in each case.
The molecule `CC(=O)N1c2ccccc2C23CCN4CC5=CCOC(O)C(C5CC42)C13` (stereo unspecified) displayed a TGI in [6] above 100 µM.
As to `CN(C)CC1(C)CC/C(=C\c2ccc3c(c2)OCO3)C1=O` (stereo unspecified), the TGI in assay [2], in assay [3], in assay [4], in assay [7] and in assay [5] was above 100 µM in each case.
`CC(NC(=O)C(N)Cc1ccccc1)C(=O)NC(Cc1ccc(O)cc1)C(=O)NC(Cc1c[nH]c2ccccc12)C(=O)NC(CCCCN)C(=O)NC(C(=O)NC(C)C(=O)NC(Cc1ccc2ccccc2c1)C(N)=O)C(C)C` (stereo unspecified) (H-FAYWKVA[2Nal]-NH2; configuration not given here): the TGI in assay [2] was 78 µM; in [3], 92.6 µM; in [4], above 100 µM; in assay [7] it was 54.1 µM; in assay [5], 54.9 µM.
Regarding `CC(=O)O[C@H]1CCC2[C@@H]3CCC4C(=O)c5oncc5C[C@]4(C)C3CC[C@@]21C` (stereo partly specified), the TGI in [2], in assay [3], in assay [4], in [7] and in assay [5] was above 100 µM in each case.
In the case of `NC(C(=O)O)C(N)C(=O)O` (stereo unspecified), the TGI in assay [6] is above 100 µM.
On to `O=C(O)C1Cc2nc[nH]c2CN1` (stereo unspecified), for which the TGI in assay [1], in assay [2], in [3], in assay [4] and in assay [7] was above 100 µM each time.
As for `O=C(C#Cc1c[nH]c(=O)[nH]c1=O)c1ccccc1`, the TGI was determined as 27.4 µM in [1], 35.4 µM in [3], 38.5 µM in [4] and 28.9 µM in [7].
As for `COC1OC(C)C(OC(=O)C(C)(C)C)C(C)(O)C1O` (stereo unspecified), the TGI in assay [2], in assay [4], in assay [7] and in [5] was above 100 µM in each case.
For the molecule `O=C1OC(=O)C2C3CCC(O3)C12` (stereo unspecified), the TGI in assay [3], in assay [4], in [7] and in assay [5] was above 100 µM in each case.
In [6], `c1ccc(-c2cc(-c3cc(-c4ccccn4)[nH]n3)n[nH]2)nc1` yielded a TGI above 100 µM.
As to `O=C1/C(=C\c2ccccc2)c2ccccc2N1Cc1ccccc1`, the TGI in assay [6] turned out to be 13.4 µM.
For the molecule `Cc1ccc(NC(=O)SCCC(=O)O)cc1NC(=O)SCCC(=O)O`, the TGI is above 100 µM in assay [2], above 100 µM in assay [3], above 100 µM in assay [4] and above 10 µM in assay [7].
With `CCCCCN(CCCCC)C(=O)[C@@H](CCC(=O)OCc1ccccc1)NC(=O)c1cc2ccccc2[nH]1`, the TGI in [1], in assay [2], in assay [3], in [4] and in [7] was above 100 µM each time.
Regarding `COc1ccc(OC)c(CCc2cc(OC)c(OC)cc2C)c1`, the TGI in assay [2] is above 100 µM; in assay [3], 72.9 µM; in assay [4], 92.7 µM; in assay [5] it was above 100 µM.
